Experimental data: patent EP1002054B1, “PROCESS FOR THE PRODUCTION OF VIRUS IN CELL CULTURES” (priority 1998, dated 1999)
*1 amine or outer side, *2 acyl side, *3 side chain or, on linkers, in order; H or OH if unused. Where a SMILES comes first, the peptide text is derived from it. Bridges are numbered along the chain shown (N, C = ends). Roman numbers before positions name the chains, in order. [ ]: non-standard residue; d: D form. Actinocin(9to1) = Cc1c2oc3c(C)ccc(C(=O)[*:1])c3nc-2c(C(=O)[*:2])c(N)c1=O; NMeV = CN[C@H](C(=O)O)C(C)C; Sar = CNCC(=O)O

Experiments:
interferon response [1] = test system: interferon response
interferon response [2] = conditions: pretreatment of the cells; cited from earlier work

Structure (SMILES): Cc1c2oc3c(C)ccc(C(=O)N[C@@H]4C(=O)N[C@H](C(C)C)C(=O)N5CCC[C@H]5C(=O)N(C)CC(=O)N(C)[C@@H](C(C)C)C(=O)O[C@@H]4C)c3nc-2c(C(=O)N[C@@H]2C(=O)N[C@H](C(C)C)C(=O)N3CCC[C@H]3C(=O)N(C)CC(=O)N(C)[C@@H](C(C)C)C(=O)O[C@@H]2C)c(N)c1=O [actinomycin D] (I: T[dV]P[Sar][NMeV] / II: T[dV]P[Sar][NMeV]; ester I:1-I:C, II:1-II:C; linker I:N-II:N via Actinocin(9to1))
- effect on virus yield relative to control cultures (interferon response [1]): substantial increase in virus yield
- toxicity to the cells (interferon response [1]): relatively toxic to the cells
- effect on interferon response (interferon response [2]): blocks the interferon response
